The results in this text go back to US11059780B2, “Substituted pyrrolidine compound and use thereof” (Takeda Pharmaceutical Company Limited, priority 2017, dated 2021).

Structures are written as SMILES.

The target in this assay is T1, human orexin type 2 receptor (hOX2R) (Homo sapiens, UniProt O43614).
T1 construct: expressed in transfected cells
T1 sequence (O43614 1-444): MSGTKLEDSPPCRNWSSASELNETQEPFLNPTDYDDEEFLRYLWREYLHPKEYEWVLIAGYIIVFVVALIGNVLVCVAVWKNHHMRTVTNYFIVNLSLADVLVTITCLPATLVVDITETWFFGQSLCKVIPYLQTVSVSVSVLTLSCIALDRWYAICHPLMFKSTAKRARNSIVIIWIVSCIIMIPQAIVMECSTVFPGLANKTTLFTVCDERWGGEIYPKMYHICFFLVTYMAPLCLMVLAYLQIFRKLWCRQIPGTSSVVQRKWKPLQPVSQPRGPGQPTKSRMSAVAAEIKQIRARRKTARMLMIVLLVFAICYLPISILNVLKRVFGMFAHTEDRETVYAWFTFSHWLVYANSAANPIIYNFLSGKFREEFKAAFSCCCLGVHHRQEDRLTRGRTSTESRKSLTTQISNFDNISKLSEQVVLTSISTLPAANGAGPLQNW
Kind of assay: Measurement of orexin type 2 receptor agonist activity (Fluo-4 calcium fluorescence, CHO cells forcibly expressing human OX2 receptor). The class given is cell-based. Conditions: test compound 3 μM, DMSO = 0%, orexin A (human) 10 nM = 100%. The procedure, abridged:
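CHO-dhfr cells stably expressing human OX2 receptor, loaded with Fluo-4 AM in HBSS/HEPES/BSA with probenecid, then given test compound at 3 μM. Calcium fluorescence recorded for about 2 min 40 s by FDSS; activity normalized to DMSO (0%) and 10 nM human orexin A (100%).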
Take `CO[C@@H]1CN(C(=O)c2cc(C)ccc2C)C[C@H]1Oc1cccc(C(C)S(=O)(=O)N2CCC[C@H]2c2ccccn2)c1` (stereo partly drawn) [Example 137, (2,5-dimethylphenyl)((3R,4R)-3-methoxy-4-(3-(1-(((2S)-2-(pyridin-2-yl)pyrrolidin-1-yl)sulfonyl)ethyl)phenoxy)pyrrolidin-1-yl)methanone]: the “OX2R agonist activity (3 μM, %)” value came to 88%.
As for `CO[C@@H]1CN(C(=O)c2cc(C)ccc2C)C[C@H]1Oc1ccc(F)c(CS(=O)(=O)N2CCCC2c2ccccn2)c1` (relative stereo) [Example 87, trans-(2,5-dimethylphenyl)(3-(4-fluoro-3-(((2-(pyridin-2-yl)pyrrolidin-1-yl)sulfonyl)methyl)phenoxy)-4-methoxypyrrolidin-1-yl)methanone], the figure is 67%; as for `CO[C@@H]1CN(C(=O)c2c(C)cccc2C2CC2)C[C@H]1Oc1cccc(NS(=O)(=O)N(C)C2CCOCC2)c1` (relative stereo) [Example 165, trans-N′-(3-((1-(2-cyclopropyl-6-methylbenzoyl)-4-methoxypyrrolidin-3-yl)oxy)phenyl)-N-methyl-N-(tetrahydro-2H-pyran-4-yl)sulfuric diamide], 108%; as for `COc1ccccc1C1CCCN1S(=O)(=O)Nc1cccc(O[C@@H]2CN(C(=O)c3cc(C)ccc3C)C[C@H]2OC)c1` (relative stereo) [Example 66, trans-N-(3-((1-(2,5-dimethylbenzoyl)-4-methoxypyrrolidin-3-yl)oxy)phenyl)-2-(2-methoxyphenyl)pyrrolidine-1-sulfonamide], 72%.
The value for `CO[C@@H]1CN(C(=O)c2cc(C)ccc2C)C[C@H]1Oc1cccc(NS(=O)(=O)N2CCC23COC3)c1` (relative stereo) [Example 63, trans-N-(3-((1-(2,5-dimethylbenzoyl)-4-methoxypyrrolidin-3-yl)oxy)phenyl)-6-oxa-1-azaspiro[3.3]heptane-1-sulfonamide] was 77%.
On to `CO[C@@H]1CN(C(=O)c2cc(C)ccc2C)C[C@H]1Oc1cccc(NS(=O)(=O)N2CCCC2c2ccncc2)c1` (relative stereo) [Example 52, trans-N-(3-((1-(2,5-dimethylbenzoyl)-4-methoxypyrrolidin-3-yl)oxy)phenyl)-2-(pyridin-4-yl)pyrrolidine-1-sulfonamide], for which the “OX2R agonist activity (3 μM, %)” value stood at 83%.
The value for `COc1ccc(Cl)cc1C(=O)N1C[C@@H](OC)[C@H](Oc2cccc(CS(=O)(=O)N3CCCC3c3ccccn3)c2)C1` (relative stereo) [Example 108, trans-(5-chloro-2-methoxyphenyl)(3-methoxy-4-(3-(((2-(pyridin-2-yl)pyrrolidin-1-yl)sulfonyl)methyl)phenoxy)pyrrolidin-1-yl)methanone] was 74%.
As for `CO[C@@H]1CN(C(=O)c2cc(C)ccc2C)C[C@H]1Oc1cccc(CS(=O)(=O)N2CCC23CN(C(=O)OC(C)(C)C)C3)c1` (relative stereo) [Example 32, tert-butyl trans-1-((3-((1-(2,5-dimethylbenzoyl)-4-methoxypyrrolidin-3-yl)oxy)benzyl)sulfonyl)-1,6-diazaspiro[3.3]heptane-6-carboxylate], the figure is 109%; as for `COc1cccc(C)c1C(=O)N1C[C@@H](OC)[C@H](Oc2cccc(NS(=O)(=O)N(C)C)c2)C1` [Example 135, N′-(3-(((3R,4R)-4-methoxy-1-(2-methoxy-6-methylbenzoyl)pyrrolidin-3-yl)oxy)phenyl)-N,N-dimethylsulfuric diamide], 90%; as for `CO[C@@H]1CN(C(=O)c2cc(C)ccc2C)C[C@H]1Oc1cccc(NS(=O)(=O)N2CCC23CCOC3)c1` (stereo partly drawn) [Example 30, N-(3-(((3R,4R)-1-(2,5-dimethylbenzoyl)-4-methoxypyrrolidin-3-yl)oxy)phenyl)-6-oxa-1-azaspiro[3.4]octane-1-sulfonamide], 68%.
In the case of `CO[C@@H]1CN(C(=O)c2cc(C)ccc2C)C[C@H]1Oc1cccc(C(C)S(=O)(=O)N(C)C2CCOCC2)c1` (relative stereo) [Example 143, trans-1-(3-((1-(2,5-dimethylbenzoyl)-4-methoxypyrrolidin-3-yl)oxy)phenyl)-N-methyl-N-(tetrahydro-2H-pyran-4-yl)ethanesulfonamide], the “OX2R agonist activity (3 μM, %)” value was determined as 92%.
As for `CO[C@@H]1CN(C(=O)c2cc(C)ccc2C)C[C@H]1Oc1cc(F)cc(CS(=O)(=O)N2CCCC2c2ccccn2)c1` (relative stereo) [Example 91, trans-(2,5-dimethylphenyl)(3-(3-fluoro-5-(((2-(pyridin-2-yl)pyrrolidin-1-yl)sulfonyl)methyl)phenoxy)-4-methoxypyrrolidin-1-yl)methanone], the “OX2R agonist activity (3 μM, %)” value worked out at 70%.
